PubChem BioAssay (NCI)
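These data come from cells grown in 96-well plates and exposed to compound for 48 hours at five concentrations. TGI is the concentration that stops growth completely.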

Tests used:
Assay in all cases: growth of human tumour cells (NCI), 48 h
MCF7 breast = test system: MCF7 breast
SNB-75 CNS = test system: SNB-75 CNS
SF-268 CNS = test system: SF-268 CNS
SK-OV-3 ovarian = test system: SK-OV-3 ovarian
SF-539 CNS = test system: SF-539 CNS
MOLT-4 leukemia = test system: MOLT-4 leukemia
T-47D breast = test system: T-47D breast
CAKI-1 renal = test system: CAKI-1 renal
A549 NSCLC = test system: A549 NSCLC
NCI-H226 lung = test system: NCI-H226 lung
KM12 colon = test system: KM12 colon
NCI-H522 lung = test system: NCI-H522 lung
TK-10 renal = test system: TK-10 renal
MDA-MB-435 = test system: MDA-MB-435
CCRF-CEM leukemia = test system: CCRF-CEM leukemia
U251 CNS = test system: U251 CNS
SN12C renal = test system: SN12C renal
RXF 393 renal = test system: RXF 393 renal
COLO 205 colon = test system: COLO 205 colon
UACC-257 melanoma = test system: UACC-257 melanoma
HOP-92 NSCLC = test system: HOP-92 NSCLC
MDA-N = test system: MDA-N
MALME-3M melanoma = test system: MALME-3M melanoma
NCI-H23 lung = test system: NCI-H23 lung
IGROV1 ovarian = test system: IGROV1 ovarian
NCI/ADR-RES ovarian = test system: NCI/ADR-RES ovarian
OVCAR-4 ovarian = test system: OVCAR-4 ovarian
HCT-15 colon = test system: HCT-15 colon
SNB-19 CNS = test system: SNB-19 CNS
OVCAR-3 ovarian = test system: OVCAR-3 ovarian
HL-60(TB) leukemia = test system: HL-60(TB) leukemia
HCC-2998 colon = test system: HCC-2998 colon
OVCAR-8 ovarian = test system: OVCAR-8 ovarian
SF-295 CNS = test system: SF-295 CNS
HT29 colon = test system: HT29 colon
HS 578T breast = test system: HS 578T breast
HCT-116 colon = test system: HCT-116 colon
HOP-62 NSCLC = test system: HOP-62 NSCLC
MDA-MB-231 breast = test system: MDA-MB-231 breast
NCI-H460 lung = test system: NCI-H460 lung
M14 melanoma = test system: M14 melanoma
LOX IMVI melanoma = test system: LOX IMVI melanoma
786-0 renal = test system: 786-0 renal
ACHN renal = test system: ACHN renal
OVCAR-5 ovarian = test system: OVCAR-5 ovarian
RPMI-8226 leukemia = test system: RPMI-8226 leukemia
A498 renal = test system: A498 renal
DU-145 prostate = test system: DU-145 prostate
K-562 leukemia = test system: K-562 leukemia
BT-549 breast = test system: BT-549 breast
PC-3 prostate = test system: PC-3 prostate
EKVX NSCLC = test system: EKVX NSCLC
UO-31 renal = test system: UO-31 renal
UACC-62 melanoma = test system: UACC-62 melanoma
SK-MEL-2 melanoma = test system: SK-MEL-2 melanoma
SW-620 colon = test system: SW-620 colon
SK-MEL-28 melanoma = test system: SK-MEL-28 melanoma
SK-MEL-5 melanoma = test system: SK-MEL-5 melanoma
SR leukemia = test system: SR leukemia

CN(C)c1ccc(/C=C(\NC(=O)c2ccccc2)C(=O)Nc2ccccc2C(=O)NCc2ccccc2)cc1
TGI (MCF7 breast): > 100 µM | TGI (SNB-75 CNS): > 100 µM | TGI (SF-268 CNS): > 100 µM | TGI (SK-OV-3 ovarian): > 100 µM | TGI (SF-539 CNS): > 100 µM | TGI (MOLT-4 leukemia): > 100 µM | TGI (T-47D breast): > 100 µM | TGI (CAKI-1 renal): > 100 µM | TGI (A549 NSCLC): > 100 µM | TGI (NCI-H226 lung): > 100 µM | TGI (KM12 colon): > 100 µM | TGI (NCI-H522 lung): 93.3 µM | TGI (TK-10 renal): > 100 µM | TGI (MDA-MB-435): > 100 µM | TGI (CCRF-CEM leukemia): > 100 µM | TGI (U251 CNS): > 100 µM | TGI (SN12C renal): > 100 µM | TGI (RXF 393 renal): > 100 µM | TGI (COLO 205 colon): > 100 µM | TGI (UACC-257 melanoma): > 100 µM | TGI (HOP-92 NSCLC): > 100 µM | TGI (MDA-N): > 100 µM | TGI (MALME-3M melanoma): > 100 µM | TGI (NCI-H23 lung): > 100 µM | TGI (IGROV1 ovarian): > 100 µM | TGI (NCI/ADR-RES ovarian): > 100 µM | TGI (OVCAR-4 ovarian): > 100 µM | TGI (HCT-15 colon): > 100 µM | TGI (SNB-19 CNS): > 100 µM | TGI (OVCAR-3 ovarian): > 100 µM | TGI (HL-60(TB) leukemia): > 100 µM | TGI (HCC-2998 colon): > 100 µM | TGI (OVCAR-8 ovarian): > 100 µM | TGI (SF-295 CNS): > 100 µM | TGI (HT29 colon): > 100 µM | TGI (HS 578T breast): > 100 µM | TGI (HCT-116 colon): > 100 µM | TGI (HOP-62 NSCLC): > 100 µM | TGI (MDA-MB-231 breast): > 100 µM | TGI (NCI-H460 lung): > 100 µM | TGI (M14 melanoma): > 100 µM | TGI (LOX IMVI melanoma): > 100 µM | TGI (786-0 renal): > 100 µM | TGI (ACHN renal): > 100 µM | TGI (OVCAR-5 ovarian): > 100 µM | TGI (RPMI-8226 leukemia): > 100 µM | TGI (A498 renal): > 100 µM | TGI (DU-145 prostate): > 100 µM | TGI (K-562 leukemia): > 100 µM | TGI (BT-549 breast): > 100 µM | TGI (PC-3 prostate): > 100 µM | TGI (EKVX NSCLC): > 100 µM | TGI (UO-31 renal): > 100 µM | TGI (UACC-62 melanoma): > 100 µM | TGI (SK-MEL-2 melanoma): > 100 µM | TGI (SW-620 colon): > 100 µM | TGI (SK-MEL-28 melanoma): > 100 µM | TGI (SK-MEL-5 melanoma): > 100 µM

CCN(CC)CCNC(=O)c1cc2cc(NC(=O)c3cc4cc(N)ccc4[nH]3)ccc2[nH]1
TGI (MCF7 breast): 36.8 µM | TGI (SF-268 CNS): > 100 µM | TGI (SK-OV-3 ovarian): > 100 µM | TGI (SF-539 CNS): 85.3 µM | TGI (MOLT-4 leukemia): 48.5 µM | TGI (T-47D breast): > 100 µM | TGI (CAKI-1 renal): > 100 µM | TGI (A549 NSCLC): > 100 µM | TGI (SR leukemia): 55 µM | TGI (KM12 colon): 28 µM | TGI (NCI-H522 lung): 46.7 µM | TGI (TK-10 renal): > 100 µM | TGI (MDA-MB-435): 58 µM | TGI (CCRF-CEM leukemia): 38.9 µM | TGI (U251 CNS): > 100 µM | TGI (SN12C renal): > 100 µM | TGI (RXF 393 renal): 61.3 µM | TGI (COLO 205 colon): 25.6 µM | TGI (UACC-257 melanoma): > 100 µM | TGI (HOP-92 NSCLC): > 100 µM | TGI (MDA-N): > 100 µM | TGI (NCI-H23 lung): > 100 µM | TGI (NCI/ADR-RES ovarian): > 100 µM | TGI (OVCAR-4 ovarian): 27.7 µM | TGI (HCT-15 colon): > 100 µM | TGI (SNB-19 CNS): > 100 µM | TGI (HCC-2998 colon): 36.3 µM | TGI (OVCAR-8 ovarian): > 100 µM | TGI (SF-295 CNS): > 100 µM | TGI (HT29 colon): > 100 µM | TGI (HS 578T breast): > 100 µM | TGI (HCT-116 colon): 79.7 µM | TGI (HOP-62 NSCLC): > 100 µM | TGI (MDA-MB-231 breast): 73.4 µM | TGI (NCI-H460 lung): > 100 µM | TGI (M14 melanoma): 77.1 µM | TGI (786-0 renal): > 100 µM | TGI (ACHN renal): > 100 µM | TGI (OVCAR-5 ovarian): > 100 µM | TGI (RPMI-8226 leukemia): 74.5 µM | TGI (A498 renal): > 100 µM | TGI (DU-145 prostate): 47.1 µM | TGI (K-562 leukemia): > 100 µM | TGI (BT-549 breast): > 100 µM | TGI (EKVX NSCLC): > 100 µM | TGI (UO-31 renal): > 100 µM | TGI (UACC-62 melanoma): 59.3 µM | TGI (SK-MEL-2 melanoma): > 100 µM | TGI (SW-620 colon): > 100 µM | TGI (SK-MEL-28 melanoma): > 100 µM
